Measurements reported in patent publication EP1145714A1, “DRUGS” (Takeda Chemical Industries, Ltd., priority 1998, dated 2000).

Tests used:
[1] = tested on: vomiting induced by morphine in ferrets; experiment: Vomiting induced by morphine in ferrets, oral dosing; format: in vivo; settings: 3 mg/kg p.o., morphine 0.3 mg/kg subcutaneous
Protocol: Male 6 or 7 ferrets (1.6 to 2.0 kg) per one group were used. Morphine was subcutaneously administered at0.3 mg/0.3 ml/kg. 2.5 hours before morphine dosing, a small amount of a feed was given to the animals. 30 minutes thereafter, predetermined doses of the compound No. 3 were orally given. To a control animal group under no fasting was orally given a predetermined volume of 0.5 % methyl cellulose solution. A predetermined volume of ondansetron was orally given to the animals under fasting. To a control animal group of ondansetron under fasting was orally given a predetermined volume of physiological saline. The frequency of vomiting was counted up to 30 minutes after morphine dosing. The compound No. 3 was suspended in 0.5 % methyl cellulose solution and was then orally dosed at a ratio of 1 ml per 1 kg body weight. An injection of ondansetron at a concentration of 0.2 w/v % was orally dosed. Additionally, 0.5 % methyl cellulose solution was orally given at a ratio of 1 ml per 1 kg body weight, while physiological saline was orally given at a ratio of 1 ml per 1 kg body weight. The data relating to the frequency of vomiting, the latency and the time period from the occurrence of vomiting to the termination thereof were statistically analyzed by the Dunnett test or t test, with reference to the difference from the control group.
(§1) The retching suppression ratio and vomiting suppression ratio were calculated by the following formula. [Frequency of retching or vomiting in control] - [Frequency of retching or vomiting in animals dosed with compound No. 3] / [Frequency of retching or vomiting in control] x 100 (%) [formula]

[2] = tested on: acute and delayed vomiting induced by cisplatin in ferrets; experiment: Acute and delayed vomiting induced by cisplatin in ferrets, oral dosing once or twice daily; format: in vivo; settings: cisplatin 5 mg/kg i.p.; for Duration (in hour; mean ± SD) / Latency (in hour; mean ± SD) / On day 0 (0-24 hours): frequency of retching and vomiting (mean ± SD) / On day 0 (0-24 hours): number of ferrets with vomiting/ number of tested ferrets / On days 1-2(24-48 hours): frequency of retching and vomiting (mean ± SD) / On days 1-2(24-48 hours): number of ferrets with vomiting/ number of tested ferrets / Total frequency of retching and vomiting (on days 0~2; 0-72 hours): twice daily, under fasting
Protocol: Male 4 to 6 ferrets (1.2 to 2.2 kg) per one group were used. Cisplatin was intraperitoneally given at 5 mg/5ml/kg. 30 minutes prior to cisplatin administration and 24 and 48 hours after cisplatin administration, predetermined doses of the compound No. 3 were orally given in case of dosing once daily. 30 minutes prior to cisplatin administration and 12, 24, 36, 48 and 60 hours after cisplatin administration, predetermined doses of the compound No. 3 were orally given in case of dosing twice daily. 30 minutes prior to the dosing of the compound No. 3, a small amount of a feed was given to the animals in any of the cases. Similarly, a predetermined volume of 0.5 % methyl cellulose solution was similarly given orally to a control animal group under no fasting. A predetermined dose of ondansetron was orally given to the animals under fasting. To a control animal group of ondansetron, a predetermined volume of physiological saline was orally given to the animals under fasting. The frequency of vomiting was counted in number, up to 72 hours after cisplatin administration.
The compound No. 3 was suspended in 0.5 % methyl cellulose solution, for oral dosing at predetermined doses at a ratio of 1 ml per 1 kg body weight. An injection of ondansetron at 0.2 w/v % concentration was orally given at a predetermined volume. Additionally, 0.5 % methyl cellulose solution was orally given at a ratio of 1 ml per 1 kg body weight, while physiological saline was orally given at a ratio of 0.5 to 1.5 ml per 1 kg body weight. The data relating to the frequency of vomiting, the time period (latency) until first vomiting and the time period from the occurrence of vomiting to the termination thereof were statistically analyzed by the Dunnett test, with reference to the difference from the control group.
as §1, with “The acute vomiting suppression ratio, delayed vomiting” for “The retching”, “and total” for “and”

## Cc1nccn1CC1CCc2c(c3ccccc3n2C)C1=O (stereo not shown) [Ondansetron, ondansetron, reference compound]
[1]
  Acute vomiting suppression ratio: 0 % NS
  Effect on retching and vomiting (in words): did not suppress
  Pseudo-vomiting suppression ratio: 12 % NS
[1]; under fasting, 30 minutes
  A: Number of ferrets with retching/number of tested ferrets: 5/6
  B: Frequency of retching (mean ± SD): 17.2 ± 6.4
  C: Time period until first retching (minute; mean ± SD): 8.8 ± 4.3 min
  D: Duration of retching (minute; mean ± SD): 5.0 ± 2.3 min
  E: Number of ferrets with vomiting/number of tested ferrets: 5/6
  F: Frequency of vomiting (mean ± SD): 2.3 ± 1.2
  G: Time period until first vomiting (minute; mean ± SD): 9.2 ± 4.2 min
  H: Duration of vomiting (minute; mean ± SD): 3.7 ± 2.6 min
[2]; 1 mg/kg p.o. twice daily
  Acute vomiting suppression ratio (0 to 24 hours after cisplatin dosing): 0 % NS
  Delayed vomiting suppression ratio (24 to 72 hours after cisplatin dosing): 0 % NS
  Total vomiting suppression ratio (0 to 72 hours after cisplatin dosing): 0 % NS
[2]; 1 mg/kg × 2 p.o.
  Duration (in hour; mean ± SD): 56.5 ± 2.6 h
  Latency (in hour; mean ± SD): 8.7 ± 0.9 h
  On day 0 (0-24 hours): frequency of retching and vomiting (mean ± SD): 70.2 ± 25.2
  On day 0 (0-24 hours): number of ferrets with vomiting/ number of tested ferrets: 5/5
  On days 1-2(24-48 hours): frequency of retching and vomiting (mean ± SD): 327.4 ± 88.8
  On days 1-2(24-48 hours): number of ferrets with vomiting/ number of tested ferrets: 5/5
  Total frequency of retching and vomiting (on days 0~2; 0-72 hours): 397.6 ± 72.0
[2]; 3 mg/kg p.o. twice daily
  Acute vomiting suppression ratio (0 to 24 hours after cisplatin dosing): 58 % NS
  Delayed vomiting suppression ratio (24 to 72 hours after cisplatin dosing): 32 % NS
  Total vomiting suppression ratio (0 to 72 hours after cisplatin dosing): 36 % NS
[2]; 3 mg/kg × 2 p.o.
  Duration (in hour; mean ± SD): 44.2 ± 8.4 h
  Latency (in hour; mean ± SD): 15.7 ± 5.6 h
  On day 0 (0-24 hours): frequency of retching and vomiting (mean ± SD): 27.8 ± 13.1
  On day 0 (0-24 hours): number of ferrets with vomiting/ number of tested ferrets: 4/6
  On days 1-2(24-48 hours): frequency of retching and vomiting (mean ± SD): 221.7 ± 62.9
  On days 1-2(24-48 hours): number of ferrets with vomiting/ number of tested ferrets: 6/6
  Total frequency of retching and vomiting (on days 0~2; 0-72 hours): 249.5 ± 74.2
